{"source": "patent US6926905B2", "about": "“Liposomak compositions and methods of preparation” (Yissum Research Development Company of the Hebrew …, priority 1998, dated 2005)", "key": {"[1]": {"test": "Tissue BUP post-administration: drug remaining at the site of injection (HPLC of excised tissue)", "type": "in vivo", "details": "four hours after injection, mice, subcutaneous", "procedure": "In a separate group of mice, the amount of drug remaining at the site of injection after administration of 0.5% and 3.5% liposomal BUP (formulation 3) or 0.5% free BUP was determined. Three animals were sacrificed at 0, 0.25, 0.5, 1, 2, 4, and 8 hours after injections of all drug formulations and also at 16, 24, 48 and 96 hours after injection of the liposomal formulations. After sacrifice, a 1-cm2 circular tissue section including the entire area of injection, and extending to the peritoneum, was excised. The tissue was homogenized in 1 ml of isopropanol for 1 min, and then centrifuged at 16,000×G (Eppendorf Centrifuge 5417C, Engelsdorf, Germany). The supernatant was diluted 1:100 in isopropanol, and BUP concentration was determined using HPLC. In vivo release kinetics were done in triplicate. Results are presented in FIG. 2, where the absolute amounts remaining are expressed as mean±SD."}, "Male Swiss-Webster mice [2]": {"system": "Male Swiss-Webster mice", "test": "Analgesic efficacy: sensory block, vocalization response to cutaneous electrical stimulation after subcutaneous injection", "type": "in vivo", "details": "8 mice", "procedure": "All experiments were approved by the Institutional Animal Care and Use Committee. Male Swiss-Webster mice weighing 26+3 g (mean+SD) were used. Animals had free access to food and water, and were maintained on 12-hour dark-light cycle. Prior to testing, the hair overlying the abdomen was shaved. Analgesia was assessed using response to cutaneous electrical stimulation. A current generator (model S48, Grass Instruments, Quincy, Mass.) coupled to a constant current unit (model PSIU6F, Grass Instruments, Quincy, Mass.) was used. The current was delivered to the skin surface by touching it gently with two electrodes fashioned from #25 g needles. The vocalization threshold (the current required to produce a vocalization response) was assessed prior to injection of study solutions. […] To determine analgesic duration, mice were injected with liposomal BUP compositions having 0.5 wt % and 3.5 wt % bupivacaine, respectively, formed by dilution (as necessary of formulation 3, above. Free BUP (0.5%), hyperosmotic saline (580 mM), or drug-free liposomes were used as controls. For all groups, […] of test solution was injected subcutaneously using a #25 g needle in 8 mice. After injection, sensory block was assessed at 5, 15, 30 minutes and then at 1, 1.5, 2, 3, 4.5, 6, 9, 12, 14, 16, 17, and 19 hours. Failure to vocalize in response to stimulation with threshold current was taken as analgesia. […]"}, "Male Swiss-Webster mice [3]": {"system": "Male Swiss-Webster mice", "details": "mouse, in vivo"}}, "note": "Structures can show the parent of a compound that is named as a salt.", "data": [{"smiles": "CCCCN1CCCCC1C(=O)Nc1c(C)cccc1C", "note": "(centres unmarked) [0.5% free BUP, Bupivacaine hydrochloride]", "values": [{"measurement": "amount remaining at the site", "setting": "[1]", "result": 8, "unit": "mg"}, {"measurement": "injected dose remaining at the site", "setting": "[1]", "result": 1, "unit": "%"}, {"measurement": "time at which analgesia was exhibited", "setting": "Male Swiss-Webster mice [2]", "result": 30, "unit": "min"}, {"measurement": "time at which analgesia was not detected (regressed in all animals)", "setting": "Male Swiss-Webster mice [2]", "result": 2, "unit": "h"}, {"measurement": "systemic toxic effects", "setting": "Male Swiss-Webster mice [3]", "result": "produced toxicity"}]}]}
